Data published in PubChem BioAssay (NCI).
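Values below derive from 48-hour exposures of cells grown in 96-well plates, with endpoints linearly interpolated between the two concentrations bracketing the appropriate inhibition level. The concentration for full growth arrest is given as TGI.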

Experiments:
Assay in all cases: NCI anticancer screen, dose series, 48 h
MALME-3M melanoma = tested on: MALME-3M melanoma
SNB-19 CNS = tested on: SNB-19 CNS
KM12 colon = tested on: KM12 colon
UO-31 renal = tested on: UO-31 renal
UACC-257 melanoma = tested on: UACC-257 melanoma
786-0 renal = tested on: 786-0 renal
U251 CNS = tested on: U251 CNS
M14 melanoma = tested on: M14 melanoma
SW-620 colon = tested on: SW-620 colon
SK-MEL-2 melanoma = tested on: SK-MEL-2 melanoma
T-47D breast = tested on: T-47D breast
SK-OV-3 ovarian = tested on: SK-OV-3 ovarian
EKVX NSCLC = tested on: EKVX NSCLC
TK-10 renal = tested on: TK-10 renal
NCI/ADR-RES ovarian = tested on: NCI/ADR-RES ovarian
DU-145 prostate = tested on: DU-145 prostate
BT-549 breast = tested on: BT-549 breast
RXF 393 renal = tested on: RXF 393 renal
HCC-2998 colon = tested on: HCC-2998 colon
OVCAR-5 ovarian = tested on: OVCAR-5 ovarian

| Compound | TGI (MALME-3M melanoma) | TGI (SNB-19 CNS) | TGI (KM12 colon) | TGI (UO-31 renal) | TGI (UACC-257 melanoma) | TGI (786-0 renal) | TGI (U251 CNS) | TGI (M14 melanoma) | TGI (SW-620 colon) | TGI (SK-MEL-2 melanoma) | TGI (T-47D breast) | TGI (SK-OV-3 ovarian) | TGI (EKVX NSCLC) | TGI (TK-10 renal) | TGI (NCI/ADR-RES ovarian) | TGI (DU-145 prostate) | TGI (BT-549 breast) | TGI (RXF 393 renal) | TGI (HCC-2998 colon) | TGI (OVCAR-5 ovarian) |
| --- | --- | --- | --- | --- | --- | --- | --- | --- | --- | --- | --- | --- | --- | --- | --- | --- | --- | --- | --- | --- |
| CN(C)C(=S)/N=c1\ssc(=S)n1Cc1ccccc1 | 30.7 µM | > 56.2 µM | > 100 µM | 54 µM | > 56.2 µM | 15.9 µM | 18.6 µM | 13 µM | > 46.4 µM | 9.67 µM | > 31.6 µM | 5.27 µM | 57.6 µM | 47.1 µM | 0.401 µM | 21.7 µM | > 100 µM | 1 µM | > 27.7 µM | > 63.1 µM |
| C[C@H](NC(=O)c1ccc(CNC(=O)/C=C/c2cccc(Oc3ccccc3)c2)cc1)c1ccccc1 | > 100 µM | > 100 µM | > 100 µM | > 100 µM | > 100 µM | > 100 µM | > 100 µM | > 100 µM | > 100 µM | > 100 µM | > 100 µM | > 100 µM | > 100 µM | > 100 µM | > 100 µM | > 100 µM | > 100 µM | 80.3 µM | > 100 µM | > 100 µM |
| CCCCc1ccc(Nc2nc(SC)c3[nH]cnc3n2)cc1 | > 100 µM | > 100 µM | > 100 µM | > 100 µM | > 100 µM | > 100 µM | > 100 µM | > 100 µM | > 100 µM | > 100 µM | > 100 µM | > 100 µM | > 100 µM | > 100 µM | > 100 µM | > 100 µM | > 100 µM | > 100 µM | > 100 µM | > 100 µM |
| COc1cc2c(cc1OCCCCN1C(=O)c3cccc4cccc(c34)C1=O)N=C[C@@H]1CCCN1C2=O | 16.1 µM | > 52.3 µM | 13.2 µM | 3.4 µM | 37.7 µM | 9.73 µM | > 33.9 µM | > 34.3 µM | > 38.8 µM | 17.9 µM | 37.1 µM | > 74 µM | 44.6 µM | 6.91 µM | 28.4 µM | 14.3 µM | 28.7 µM | 3.63 µM | 20.5 µM | > 100 µM |
| Cc1cccc(CP(Cc2cccc(C)c2)CC2(Cp3c4ccccc4c4ccccc43)COC2)c1 | > 83.3 µM | > 31.6 µM | > 100 µM | > 100 µM | > 100 µM | > 31.6 µM | > 100 µM | > 100 µM | > 100 µM | > 94.7 µM | > 100 µM | > 100 µM | > 100 µM | > 71.8 µM | > 100 µM | > 100 µM | > 100 µM | > 100 µM | > 100 µM | > 100 µM |
| NC(=O)c1cc2ccc(O)cc2oc1=Nc1ccccc1 | > 100 µM | > 100 µM | > 100 µM | > 100 µM | > 100 µM | > 100 µM | > 100 µM | > 100 µM | > 100 µM | 53 µM | 66.1 µM | > 100 µM | > 100 µM | > 100 µM | > 100 µM | > 100 µM | > 100 µM | > 100 µM | 78.8 µM | > 100 µM |
| O=S(=O)(O)C(=Nc1cccc(Cc2ccccc2)c1)Nc1cccc(Cc2ccccc2)c1 | 32.6 µM | 48.5 µM | 31.5 µM | 29.5 µM | 48.7 µM | 29 µM | 37.8 µM | 31.8 µM | 52.1 µM | 44.6 µM | 32.1 µM | 36.9 µM | 30.9 µM | 35.6 µM | 35.2 µM | 35.4 µM | 33.4 µM | 33.3 µM | 35.5 µM | 33.7 µM |
| CCCN(CCCc1ccccc1)CCc1ccc2[nH]c(=S)[nH]c2c1 | 25.5 µM | 91.7 µM | > 100 µM | 51.4 µM | 44.3 µM | 25.4 µM | > 100 µM | 40 µM | > 100 µM | 38.4 µM | 43.2 µM | > 100 µM | > 100 µM | > 100 µM | > 100 µM | > 100 µM | > 100 µM | 76.1 µM | 26 µM | > 100 µM |
| CC(=O)OCC1OC(OC2CC3C(C)(C)C(OC(C)=O)CC[C@]3(C)C3CCC45CC4(CCC5[C@@H](C)C[C@H](O)C(O)C(C)(C)O)[C@]23C)C(O)C(O)C1O (stereo not given in full) | > 10 µM | > 10 µM | > 10 µM | > 10 µM | > 10 µM | > 10 µM | > 10 µM | > 10 µM | > 10 µM | > 10 µM | > 10 µM | > 10 µM | > 10 µM | > 10 µM | > 10 µM | > 10 µM | > 10 µM | > 10 µM | > 10 µM | > 10 µM |
| Brc1cc(CCOC2CCCCO2)c(-c2sccc2CCOC2CCCCO2)s1 (stereo not given) | 87.7 µM | > 100 µM | > 100 µM | > 42.1 µM | > 100 µM | > 100 µM | > 100 µM | > 100 µM | > 100 µM | 98.4 µM | > 100 µM | > 100 µM | > 100 µM | > 100 µM | > 100 µM | > 100 µM | > 100 µM | 3 µM | > 100 µM | > 100 µM |
| CCn1c(SCC(=O)NNC(=S)Nc2ccc([N+](=O)[O-])cc2)nc2ccccc2c1=O | > 100 µM | > 100 µM | > 100 µM | > 100 µM | > 100 µM | > 100 µM | > 100 µM | > 100 µM | > 100 µM | > 100 µM | > 100 µM | > 100 µM | > 100 µM | > 100 µM | > 100 µM | > 100 µM | > 100 µM | > 100 µM | > 100 µM | > 100 µM |
| CC[C@]1(Cc2ccc(OC)c(OC)c2)C=[N+]([O-])O[C@H](OC2CCCC2(c2ccccc2)c2ccccc2)[C@@H]1OC(C)=O (stereo not given in full) | 4.83 µM | 18.5 µM | 8.89 µM | 12.6 µM | 19.2 µM | 3.67 µM | > 62 µM | 14.9 µM | > 100 µM | 14.7 µM | 12.4 µM | 50.2 µM | 25.3 µM | 10.8 µM | 14.8 µM | 13.1 µM | 27.9 µM | 4.35 µM | 7.71 µM | 44.2 µM |
| CCOC(=O)c1cn2c(n1)sc1c(Cl)c(Cl)ccc12 | 8.92 µM | 98.9 µM | > 58.2 µM | > 100 µM | > 100 µM | 31.2 µM | > 100 µM | > 96.3 µM | > 100 µM | > 100 µM | > 90.5 µM | > 100 µM | > 100 µM | > 79.4 µM | 97.9 µM | > 100 µM | > 100 µM | > 100 µM | 98 µM | > 100 µM |
| Nc1ccc2c(SCc3ccc([N+](=O)[O-])cc3)c3ccccc3nc2c1 | 26.8 µM | 59.1 µM | 27 µM | 27.2 µM | 33.6 µM | 20.1 µM | 38.1 µM | 24.1 µM | 13.8 µM | 32.4 µM | 22.6 µM | 42.7 µM | 59 µM | 26.5 µM | 40.6 µM | 17.9 µM | 32.1 µM | 42.3 µM | > 54 µM | 35.9 µM |
| COc1cc2c(cc1OC)C(=O)/C(=C/c1ccc(Cl)cc1)CC2 | > 10 µM | > 10 µM | > 10 µM | > 10 µM | > 10 µM | > 10 µM | > 10 µM | > 10 µM | > 10 µM | > 10 µM | > 10 µM | > 10 µM | > 10 µM | > 10 µM | > 10 µM | > 10 µM | > 10 µM | > 10 µM | > 10 µM | > 10 µM |
| CC(C)=CCC/C(=C/CC/C(=C\CCc1ccoc1)C(=O)O)C(=O)O | > 100 µM | > 100 µM | > 100 µM | > 100 µM | > 100 µM | > 100 µM | > 100 µM | > 100 µM | > 100 µM | > 100 µM | > 100 µM | > 100 µM | > 100 µM | > 100 µM | > 100 µM | > 100 µM | > 100 µM | > 100 µM | > 100 µM | > 100 µM |
| C=CCC1(OC(C)=O)C2OC(=O)C1(O)OCC2O (stereo not given) | > 100 µM | > 100 µM | > 100 µM | > 100 µM | > 100 µM | > 100 µM | > 100 µM | > 100 µM | > 100 µM | > 100 µM | > 100 µM | > 100 µM | > 100 µM | > 100 µM | > 100 µM | > 100 µM | > 100 µM | > 100 µM | > 100 µM | > 100 µM |
